Laboratory results: patent US20100216747A1, “PREVENTIVE AGENT OR THERAPEUTIC AGENT FOR DISEASE CAUSED BY ABNORMAL BONE METABOLISM” (TEIJIN PHARMA LIMITED, priority 2007, published 2010)
Read-outs that look alike come from different tables or passages of the source.

Legend:
[1] = tested on: osteoclast-like cells formed from mouse bone marrow-derived cells; test: Formation of osteoclast-like cells (TRAP-positive multinuclear cells) from mouse bone marrow-derived cells cultured with 1α,25(OH)2D3; format: cell-based; settings: alone or simultaneously, 7 days; for number of osteoclast-like cells formed, taking Comparative Example 1-1 as 100%: Example 1 experiment (FIG. 1): Compound A 10^−7 M; for number of osteoclast-like cells formed, taking Comparative Example 1-1 as 100% / number of osteoclast-like cells formed, taking Comparative Example 2-1 as 100%: 3 wells; for number of osteoclast-like cells formed, taking Comparative Example 2-1 as 100%: Example 2 experiment (FIG. 2): Compound A 10^−6 M; for number of osteoclast-like cells formed, taking Comparative Example 3-1 as 100%: Example 3 experiment (FIG. 3): Compound A 10^−7 M, 4 to 5 wells
From the text: Multinuclear osteoclast-like cells were formed from mouse bone marrow-derived cells by collecting bone marrows of the femur and the tibia from a mouse, removing erythrocytes according to the ordinary method, plating the residual components in a 96-well plate at the density of 4×10^5cells/well, culturing the cells overnight, then adding a medium containing 1α,25-dihydroxy vitamin D3 (referred to as 1═,25(OH)2D3 hereinbelow) in order to be at 10^−9M, and culturing the cells in the presence of 1α,25(OH)2D3 for 7 days. An αMEM medium containing 10% fetal calf serum (referred to as 10% FCS-αMEM hereinbelow) was used as a medium. When 1α,25(OH)2D3 was added to the mouse bone marrow-derived cells, each of a solvent alone (Comparative Example 1-1), N-hydroxy-4-{5-[4-(5-isopropyl-2-methyl-1,3-thiazol-4-yl)phenoxy]pentoxy}-benzamidine (described as Compound A in Figure) alone (Comparative Example 1-2), risedronic acid alone (Comparative Example 1-3), and N-hydroxy-4-{5-[4-(5-isopropyl-2-methyl-1,3-thiazol-4-yl)phenoxy]pentoxy}-benzamidine (described as Compound A in Figure) and risedronic acid simultaneously (Example 1) were added to the mouse bone marrow-derived cell culture system, and the effects on formation of osteoclast-like cells were evaluated. The following groups were set for the experiment.
For addition of N-hydroxy-4-{5-[4-(5-isopropyl-2-methyl-1,3-thiazol-4-yl)phenoxy]pentoxy}-benzamidine (Compound A), in both the Comparative Examples and Example, N-hydroxy-4-{5-[4-(5-isopropyl-2-methyl-1,3-thiazol-4-yl)phenoxy]pentoxy}-benzamidine (Compound A) was dissolved in dimethylsulfoxide (DMSO) at a concentration of 10^−4 M, and the resultant solution was added to the medium to make 10^−7 M at a 1000-fold dilution. For addition of risedronic acid, in both the Comparative Examples and Example, sodium risedronate hydrate was dissolved in phosphate buffered saline (PBS) at a concentration of […], and the resultant solution was added to the medium to make 3×10^−7 M at a 1000-fold dilution. On the third day after addition of the test compound(s) of the respective conditions, the medium was replaced with fresh 10% FCS-αMEM containing the test compound(s) of the respective conditions in both the Comparative Examples and Example.
In both the Comparative Examples and Example, on the 7th day after the start of culture, the medium was removed, the cells were fixed with phosphate buffered formalin and stained by tartrate-resistant acid phosphatase (abbreviated as TRAP hereinbelow), an osteoclast marker, using Sigma Acid Phosphatase, Leukocyte (TRAP) kit (Sigma, No. 386A), and the number of TRAP-positive multinuclear cells having 6 or more cell nuclei was counted as osteoclast-like cells under an optical microscope.
The experiment was conducted in a similar manner to that described in Example 1, except that the concentration of N-hydroxy-4-{5-[4-(5-isopropyl-2-methyl-1,3-thiazol-4-yl)phenoxy]pentoxy}-benzamidine in the medium was set at 10^−6M, and the following groups were set.
The experiment was conducted in a similar manner to that described in Example 1, except that clodronic acid at a concentration of 10^−5 M was allowed to act on the cells in place of risedronic acid at a concentration of 3×10^−7 M in the Comparative Examples and Example, and the following groups were set.

[2] = tested on: osteoclast-like cells formed from mouse bone marrow-derived cells; test: Bone resorption activity of osteoclast-like cells on ivory section (type I collagen cross-linked C-telopeptide in medium, ELISA); format: cell-based; settings: Example 4 experiment: Compound A 10^−7 M, risedronic acid 10^−8 M, alone or simultaneously, 9 days on ivory section, vs Comparative Example 4-1, 3 to 4 wells
From the text: Multinuclear osteoclast-like cells were formed from mouse bone marrow-derived cells by collecting bone marrows of the femur and the tibia from a mouse, removing erythrocytes according to the ordinary method, plating the residual components in a 96-well plate containing an ivory section at the density of 4×10^5 cells/well, culturing the cells overnight, then adding a medium containing 1α,25-dihydroxy vitamin D3 (referred to as 1α,25(OH)2D3 hereinbelow) in order to be at 10^−9 M, and culturing the cells in the presence of 1α,25(OH)2D3 for 9 days. An αMEM medium containing 10% fetal calf serum (referred to as 10% FCS-αMEM hereinbelow) was used as a medium. When 1α,25(OH)2D3 was added to the mouse bone marrow-derived cells, each of a solvent alone (Comparative Example 4-1), N-hydroxy-4-{5-[4-(5-isopropyl-2-methyl-1,3-thiazol-4-yl)phenoxy]pentoxy}-benzamidine (described as Compound A in Table 4) alone (Comparative Example 4-2), risedronic acid alone (Comparative Example 4-3), and N-hydroxy-4-{5-[4-(5-isopropyl-2-methyl-1,3-thiazol-4-yl)phenoxy]pentoxy}-benzamidine (described as Compound A in Table 4) and risedronic acid (Example 4) were simultaneously added to the mouse bone marrow-derived cell culture system, and the effects on formation of osteoclast-like cells were evaluated. The following groups were set for the experiment.
For addition of N-hydroxy-4-{5-[4-(5-isopropyl-2-methyl-1,3-thiazol-4-yl)phenoxy]pentoxy}-benzamidine (Compound A), in both the Comparative Examples and Example, N-hydroxy-4-{5-[4-(5-isopropyl-2-methyl-1,3-thiazol-4-yl)phenoxy]pentoxy}-benzamidine (Compound A) was dissolved in dimethylsulfoxide (DMSO) at a concentration of 10^−4 M, and the resultant solution was added to the medium to make 10^−7 M at a 1000-fold dilution. […]
Both in Comparative Examples and Example, the culture medium was collected 9 days after the start of culture, and the quantity of type I collagen cross-linked C-telopeptide in the medium was measured. […]

[3] = Mus musculus, Osteoclast-like, 168 h, Example 1 experiment: Compound A 10^−7 M, risedronic acid 3×10^−7 M, vs Comparative Example 1-1, read-out: Osteoclast-like cell formation inhibition rate (%)
[4] = Mus musculus, Osteoclast-like, 168 h, Example 2 experiment: Compound A 10^−6 M, risedronic acid 3×10^−7 M, vs Comparative Example 2-1, read-out: Osteoclast-like cell formation inhibition rate (%)
[5] = Mus musculus, Osteoclast-like, 168 h, Example 3 experiment: Compound A 10^−7 M, clodronic acid 10^−5 M, vs Comparative Example 3-1, read-out: Osteoclast-like cell formation inhibition rate (%)
[6] = Mus musculus, Osteoclast-like, 216 h, read-out: Bone resorption inhibitory rate (%)

| SMILES | number of osteoclast-like cells formed, taking Comparative Example 1-1 as 100% ([1]; risedronic acid 3×10^−7 M) [%] | number of osteoclast-like cells formed, taking Comparative Example 2-1 as 100% ([1]; risedronic acid 3×10^−7 M) [%] | number of osteoclast-like cells formed, taking Comparative Example 3-1 as 100% ([1]; clodronic acid 10^−5 M) [%] | inhibition at 0.1 µM [1, 3] [%] | inhibition at 1 µM [1, 4] [%] | inhibition at 0.1 µM [1, 5] [%] | inhibition at 0.1 µM [2, 6] [%] | inhibition at 10 µM [1, 5] [%] | inhibition at 0.3 µM [1, 3] [%] | inhibition at 0.3 µM [1, 4] [%] | Bone resorption inhibitory rate (%) ([2]; listed as Comparative Example 4-3) | inhibition at 0.01 µM [2, 6] [%] |
| --- | --- | --- | --- | --- | --- | --- | --- | --- | --- | --- | --- | --- |
| Cc1nc(-c2ccc(OCCCCCOc3ccc(/C(N)=N/O)cc3)cc2)c(C(C)C)s1 [Compound A, N-hydroxy-4-{5-[4-(5-isopropyl-2-methyl-1,3-thiazol-4-yl)phenoxy]pentoxy}-benzamidine] | 81.3 | 50 | 95.2 | 18.7 | 50 | 4.8 | 13.9 |  |  |  |  |  |
| O=P(O)(O)C(Cl)(Cl)P(=O)(O)O [clodronic acid] |  |  | 93.9 |  |  |  |  | 6.1 |  |  |  |  |
| O=P(O)(O)C(O)(Cc1cccnc1)P(=O)(O)O [risedronic acid] | 88.1 | 88.1 |  |  |  |  |  |  | 11.9 | 11.9 | 18.3 | 18.3 |
